Peptide text beside a SMILES is read from it.
How the values were obtained:
[1] = system: 11 bacterial strains (S. aureus, P. aeruginosa, A. baumannii, K. pneumoniae, E. coli); test: Antimicrobial activity screening, summary over groups of strains; format: cell-based; conditions: 50 µg/ml screen
A. baumannii ATCC 19606 = test: Antimicrobial activity screening; format: cell-based, Acinetobacter baumannii; conditions: 50 µg/ml screen

CC[C@H](C)[C@H](NC(=O)[C@@H](CCCCN)NC(=O)[C@H](CCCCN)NC(=O)[C@H](Cc1ccccc1)NC(=O)[C@H](CC(C)C)NC(=O)[C@H](CCCCN)NC(=O)[C@@H](N)CCCCN)C(=O)N[C@@H](CC(C)C)C(=O)N[C@@H](CCCCN)C(=O)N[C@@H](Cc1ccc(O)cc1)C(=O)N[C@@H](CC(C)C)C(N)=O [BP146]
growth reduction in all strains except P. aeruginosa ST175–1 [1]: at least 89%

CC[C@H](C)[C@H](NC(=O)[C@H](CCCCN)NC(=O)[C@H](CCCCN)NC(=O)[C@@H](Cc1ccccc1)NC(=O)[C@H](CC(C)C)NC(=O)[C@H](CCCCN)NC(=O)[C@@H](N)CCCCN)C(=O)N[C@@H](CC(C)C)C(=O)N[C@@H](CCCCN)C(=O)N[C@@H](Cc1ccc(O)cc1)C(=O)N[C@@H](CC(C)C)C(N)=O [BP143]
growth inhibition for all Gram-negative strains tested [1]: ≥ 83%

CC[C@H](C)[C@H](NC(=O)[C@H](CCCCN)NC(=O)[C@H](CCCCN)NC(=O)[C@H](Cc1c[nH]cn1)NC(=O)[C@H](CC(C)C)NC(=O)[C@H](CCCCN)NC(=O)[C@H](Cc1ccccc1)NS(=O)(=O)c1ccc(C)cc1)C(=O)N[C@@H](CC(C)C)C(=O)N[C@@H](CCCCN)C(=O)N[C@H](C(=O)N[C@@H](CC(C)C)C(N)=O)C(C)C [BP275] (HELM PEPTIDE1{[Cc1ccc(S(=O)(=O)[*:2])cc1].F.K.L.H.K.K.I.L.K.V.L.[am]}$$$$V2.0)
growth inhibition against A. baumannii ATCC 19,606 (A. baumannii ATCC 19606): ≥ 93%

CC[C@H](C)[C@H](NC(=O)[C@H](CCCCN)NC(=O)[C@H](CCCCN)NC(=O)[C@H](Cc1ccccc1)NC(=O)[C@H](CC(C)C)NC(=O)[C@H](CCCCN)NC(=O)[C@H](CCCCN)NS(=O)(=O)c1ccc(C)cc1)C(=O)N[C@@H](CC(C)C)C(=O)N[C@@H](CCCCN)C(=O)N[C@@H](CCCCN)C(=O)N[C@@H](CC(C)C)C(N)=O [BP125]
growth inhibition in all strains except both K. pneumoniae and E. coli ATCC 25,922 [1]: ≥ 83%
